US7786093B2, “Antistress agent” (Health Wellness Foods Corporation, priority 2004, dated 2010)

Tests used:
human mononuclear cells [1] = assay: Suppression by nigerose of the DEX-induced decrease in growth of ConA- or PHA-stimulated human mononuclear cells (WST-1 absorbance); type: cell-based; settings: for Absorbance (at 450 nm to 630 nm): DEX 10 nM, 24 h
Description: After a blood sample obtained from an adult was diluted two-fold with PBS, a Ficoll-Paque Plus solution (manufactured by Amersham Corporation) was added slowly to make double layers (blood diluted two-fold with PBS Ficoll-Paque Plus solution=4:3), which were centrifuged at the conditions of 400×g, 20° C. and 40 minutes. A mononuclear cell fraction present in the middle layer was recovered, and this mononuclear cell fraction washed twice with a 10-fold volume of PBS. The obtained mononuclear cells were suspended in an RPMI 1640 culture medium (manufactured by GIBCO BRL Corporation) to obtain a suspension of peripheral blood mononuclear cells. The number of cells in the suspension of peripheral blood mononuclear cells was measured with an automatic blood cell counter (manufactured by Sysmex Co., Ltd., Type CDA-500), and the mononuclear cells were suspended in RPMI 1640 culture medium so as to make the number of cells at a concentration of 2.0×10^6 cells/mL. This suspension was inoculated at 50 μL per one well on a 96-well tissue culture plate. To the inoculated suspension was added a solution of ConA or PHA in the RPMI 1640 culture medium in 50 μL per one well so as to make a final concentration of 2.0 μg/mL or 5.0 μg/mL, respectively. […] The mononuclear cells were incubated at 37° C. for 24 hours in a 5% CO2 incubator. At 4 hours before completion of the incubation, a solution of WST-1 (manufactured by Dojindo Laboratories Inc.), dissolved in 0.4 mM 1-methoxy PMS (manufactured by Dojindo Laboratories Inc.) to make a concentration of 10 mM, was added in 10 μL per one well, and the absorbance at a measurement wavelength of 450 nm and a reference wavelength of 630 nm was measured at the time of completion of the incubation.
WST-1, when taken into living cells, is reduced by a intracellular mitochondrial dehydrogenase to produce water-soluble formazan. Because the amount of the thus-produced formazan is proportional to the number of the living cells, the measurement of the absorbance of formazan can be made as an index of the cell growth.

human mononuclear cells [2] = assay: IFN-γ production by ConA- or PHA-stimulated mononuclear cells with DEX (ELISA); type: cell-based; settings: DEX 10 nM, 24 h
Description: (a) In a manner similar to that in Example 1, mononuclear cells were prepared from blood of an adult, and the cultivation was initiated at a concentration of 5.0×10^5 mononuclear cells/mL. In a manner similar to that in Example 1, ConA or PHA as a cell stimulatory factor was added to the culture in 50 μL per one well so as to make a final concentration of 2.0 μg/mL or 5.0 μg/mL, respectively, thereby inducing cytokine production. […] After completion of the incubation, the amount of IFN-γ in the culture supernatant was measured by the ELISA.
The determination by the ELISA is shown in the following.
(§1) A 2 μg/mL solution of a mouse anti-human IFN-γ antibody (manufactured by Endogen Inc.) prepared in a borate buffer solution was added in 50 μL per one well on a 96-well ELISA plate, and the plate was allowed to stand at 4° C. for a day to adhere the mouse anti-human IFN-γ antibody to each well. The above-mentioned culture supernatant was added in 50 μL per one well on the ELISA plate adhering the mouse anti-human IFN-γ antibody, and the plate was allowed to stand at room temperature for 90 minutes, thereby binding the IFN-γ in the culture supernatant to the mouse anti-human IFN-γ antibody adhered on the plate. After washing the plate, a 0.5 μg/mL solution of a biotin-labeled mouse anti-human IFN-γ antibody (manufactured by Endogen Inc.) prepared in a borate buffer solution was added thereto in 100 μL per one well to bind to the IFN-γ bound with the mouse anti-human IFN-γ antibody adhered on the plate. After washing out an unbound biotin-labeled mouse anti-human IFN-γ antibody, a solution of Avidin-HRP (manufactured by BD PharMingen Inc.) diluted 1000-fold in a borate buffer solution was added thereto in 100 μL per one well to bind to the biotin-labeled mouse anti-human IFN-γ antibody bound with the IFN-γ. After washing out an excess of Avidin-HRP, a phosphate buffer solution containing 0.006 V/V % of hydrogen peroxide and 0.1 W/V % of orthophenylenediamine was added thereto in 100 μL per one well to allow to react at room temperature for 15 minutes, and then the reaction was stopped by addition of 1.5 N sulfuric acid. The absorbance at a measurement wavelength of 492 nm and a reference wavelength of 630 nm was measured, and the concentration of the IFN-γ in the culture supernatant was obtained from a calibration curve prepared with a recombinant IFN-γ.

human mononuclear cells [3] = assay: IL-12 and IFN-γ production by mononuclear cells stimulated with heat-killed Lactobacillus plantarum L137, with DEX (ELISA); type: cell-based; settings: for IFN-γ / IL-12: DEX 10 nM, Lactobacillus plantarum L137 1.0 μg/mL, 24 h
Description: as §1
To the culture was added a cell stimulatory factor, which was heated dead body cells of Lactobacillus plantarum L137, so as to make a final concentration of […]. […] After completion of the incubation, the amounts of IL-12 and IFN-γ in the culture supernatant were measured by the ELISA.

BALB/c mice = assay: Thymic and splenic atrophy due to DEX in mice; type: in vivo; settings: control group (commercial feed), DEX 200 μg/mouse i.p., 24 h, female BALB/c mice
Description: Female BALB/c mice (8 weeks old) were divided into a group fed with a commercially available feed (control group) and a group fed with a commercially available feed mixed with a nigerooligosaccharide liquid sugar (Nigero S: content of nigerooligosaccharide: 30.8% by weight; manufactured by Takeda Food Products, Ltd.) at a concentration of 5% by weight (nigerooligosaccharide group). […] After 24 hours of the administration, the thymus and spleen of each mouse were excised, and the weights of the excised thymus and spleen were measured.

[4] = tested on: spleen cells of BALB/c mice; assay: Final test: cytokine production of spleen cells from DEX-administered mice given nigerooligosaccharide in drinking water (ELISA); type: in vivo; settings: DEX 60 μg/mouse i.p., ion-exchanged water as drinking water
Description: The prepared spleen cells were suspended in an RPMI 1640 culture medium so as to make a concentration of 5.0×10^6 cells/mL. This suspension was inoculated in 100 μL per one well on a 96-well tissue culture plate, and further a solution of a cell stimulatory factor, (1) PHA or (2) LPS, dissolved in the RPMI 1640 culture medium so as to make a final concentration of 12.5 μg/mL or 20 μg/mL, respectively, was added in 100 μL per one well. The spleen cells were cultivated at 37° C. for 24 hours in a 5% CO2 incubator, and the concentrations of cytokines in the culture supernatant, IL-4 and IFN-γ for the foregoing (1) or IL-10 and TNF-α for the foregoing (2), were measured by the ELISA. The amount of IFN-γ was measured on the basis of the ELISA described in Example 2. The amounts of IL-4, IL-10 and TNF-α were measured in a manner similar to the ELISA described in Example 2, except that the IFN-γ in the ELISA described in Example 2 was replaced by IL-4, IL-10 or TNF-α.
Next, in this test, to 14 weeks old, female BALB/c mice (6 mice per one group) was given as a drinking water ion-exchanged water or a 1 W/V % solution of a highly pure nigerooligosaccharide (19.8% by weight of nigerose, 36.5% by weight of a trisaccharide fraction mainly composed of nigerosylglucose, 40.2% by weight of a tetra- or more saccharide fraction mainly composed of nigerosylmaltose, and 3.5% by weight of glucose) in ion-exchanged water, and the mice were fed with a commercially available feed. […] After 24 hours of the administration, the spleen was excised, and spleen cells were cultivated at the same conditions as those in the preliminary test, and the concentrations of cytokines in the culture supernatant were measured.

human mononuclear cells [5] = assay: Activated apoptosis of mononuclear cells (ssDNA Apoptosis ELISA kit); type: cell-based; settings: for Absorbance (415 nm), degree of apoptosis: 24 h
Description: In a manner similar to that in Example 1, mononuclear cells were prepared from blood of an adult, and the cultivation was initiated at a concentration of 5.0×10^5 mononuclear cells/mL in a manner similar to that in Example 1. To the culture was added ConA or a hemolytic streptococcus preparation OK-432 (picibanil, manufactured by Chugai Pharmaceutical Co., Ltd.) as a cell stimulatory factor, so as to make a final concentrations of 2.0 μg/mL or 1.0 μg/mL, respectively. At this time, nigerose was added to each of the culture groups so as to make a concentration of 1.0 μg/mL and 10 μg/mL, where a nigerose-free control group was provided to each of the culture groups. The mononuclear cells were incubated at 37° C. for 24 hours in a 5% CO2 incubator. After completion of the incubation, apoptosis cells were fixed with an ssDNA Apoptosis ELISA kit (manufactured by Chemicon International, Inc.) which could specifically detect only the apoptosis cells, treated with a DNA-denaturing agent, then stained, and the absorbance (415 nm) was measured to quantify the degree of apoptosis.

[6] = nigerose 0 μg/mL, ConA 2.0 μg/mL
[7] = nigerose 0 μg/mL, PHA 5.0 μg/mL
[8] = nigerose 1 μg/mL, ConA 2.0 μg/mL
[9] = nigerose 1 μg/mL, PHA 5.0 μg/mL
[10] = nigerose 10 μg/mL, ConA 2.0 μg/mL
[11] = nigerose 10 μg/mL, PHA 5.0 μg/mL
[12] = nigerose 100 μg/mL, ConA 2.0 μg/mL
[13] = nigerose 100 μg/mL, PHA 5.0 μg/mL

C[C@@H]1C[C@H]2[C@@H]3CCC4=CC(=O)C=C[C@]4(C)[C@@]3(F)[C@@H](O)C[C@]2(C)[C@@]1(O)C(=O)CO [DEX, Dexamethasone]
Absorbance (at 450 nm to 630 nm) (human mononuclear cells [1]; [6]): 0.286 ± 0.004
Absorbance (at 450 nm to 630 nm) (human mononuclear cells [1]; [7]): 0.299 ± 0.004
Amount of IFN-γ production (human mononuclear cells [2]; [6]): 0.106 ± 0.046 ng/mL
Amount of IFN-γ production (human mononuclear cells [2]; [7]): 0.119 ± 0.022 ng/mL
IFN-γ (human mononuclear cells [3]; nigerose 0 μg/mL): 1.748 ± 0.307 ng/mL
Weight of spleen (BALB/c mice): 78.3 ± 19.3 mg
Weight of thymus (BALB/c mice): 28.8 ± 10.3 mg
IL-10 concentration in the culture supernatant ([4]; LPS): 0.021 ± 0.011 ng/mL
TNF-α concentration in the culture supernatant ([4]; LPS): 0.373 ± 0.062 ng/mL
IFN-γ concentration in the culture supernatant ([4]; PHA): 0.059 ± 0.027 ng/mL
IL-4 concentration in the culture supernatant ([4]; PHA): 2.1 ± 0.8 pg/mL

OC[C@H]1O[C@H](O[C@H]2[C@H](O)[C@@H](CO)OC(O)[C@@H]2O)[C@H](O)[C@@H](O)[C@@H]1O (some centres unmarked) [Nigerose, nigerose]
decrease in the growth of mononuclear cells due to DEX (human mononuclear cells [1]; addition of nigerose, ConA or PHA stimulation): significantly suppressed concentration-dependently
Absorbance (at 450 nm to 630 nm) (human mononuclear cells [1]; [8]): 0.289 ± 0.004
Absorbance (at 450 nm to 630 nm) (human mononuclear cells [1]; [9]): 0.290 ± 0.002
Absorbance (at 450 nm to 630 nm) (human mononuclear cells [1]; [10]): 0.307 ± 0.003
Absorbance (at 450 nm to 630 nm) (human mononuclear cells [1]; [11]): 0.305 ± 0.009
Absorbance (at 450 nm to 630 nm) (human mononuclear cells [1]; [12]): 0.319 ± 0.004
Absorbance (at 450 nm to 630 nm) (human mononuclear cells [1]; [13]): 0.319 ± 0.007
Amount of IFN-γ production (human mononuclear cells [2]; [8]): 0.075 ± 0.070 ng/mL
Amount of IFN-γ production (human mononuclear cells [2]; [9]): 0.144 ± 0.022 ng/mL
Amount of IFN-γ production (human mononuclear cells [2]; [10]): 0.136 ± 0.095 ng/mL
Amount of IFN-γ production (human mononuclear cells [2]; [11]): 0.219 ± 0.095 ng/mL
Amount of IFN-γ production (human mononuclear cells [2]; [12]): 0.365 ± 0.053 ng/mL
Amount of IFN-γ production (human mononuclear cells [2]; [13]): 0.320 ± 0.038 ng/mL
decrease of IL-12 and IFN-γ due to DEX (human mononuclear cells [3]; addition of nigerose, Tables 2 and 3): significantly suppressed concentration-dependently
IFN-γ (human mononuclear cells [3]; nigerose 0.1 μg/mL): 1.895 ± 0.816 ng/mL
IL-12 (human mononuclear cells [3]; nigerose 0.1 μg/mL): 0.093 ± 0.021 ng/mL
IFN-γ (human mononuclear cells [3]; nigerose 1 μg/mL): 1.866 ± 0.890 ng/mL
IL-12 (human mononuclear cells [3]; nigerose 1 μg/mL): 0.130 ± 0.042 ng/mL
IFN-γ (human mononuclear cells [3]; nigerose 10 μg/mL): 2.677 ± 1.000 ng/mL
IL-12 (human mononuclear cells [3]; nigerose 10 μg/mL): 0.171 ± 0.016 ng/mL
Absorbance (415 nm), degree of apoptosis (human mononuclear cells [5]; nigerose 1.0 μg/mL, ConA 2.0 μg/mL): 1.631 ± 0.175
Absorbance (415 nm), degree of apoptosis (human mononuclear cells [5]; nigerose 1.0 μg/mL, OK-432 1.0 μg/mL): 1.549 ± 0.276
Absorbance (415 nm), degree of apoptosis (human mononuclear cells [5]; nigerose 1.0 μg/mL, culture solution (no cell stimulatory factor)): 1.113 ± 0.053
Absorbance (415 nm), degree of apoptosis (human mononuclear cells [5]; [10]): 1.372 ± 0.165
Absorbance (415 nm), degree of apoptosis (human mononuclear cells [5]; nigerose 10 μg/mL, OK-432 1.0 μg/mL): 1.767 ± 0.203
Absorbance (415 nm), degree of apoptosis (human mononuclear cells [5]; nigerose 10 μg/mL, culture solution (no cell stimulatory factor)): 1.134 ± 0.065
effect on the apoptosis (human mononuclear cells [5]; nigerose-added group): suppressive effect
